According to article PMC3543460, “Structure-Activity Relationships of the Antimicrobial Peptide Arasin 1 — And Mode of Action Studies of the N-Terminal, Proline-Rich Region” (PLoS ONE, 2013):
In brackets after ≈: the same amount, converted by molar mass. Peptide text beside a SMILES is read from it.

What was measured:
S. aureus ATCC 9144 = format: cell-based, Staphylococcus aureus; details: ATCC 9144, 24 h
Protocol: (§1) Escherichia coli (ATCC 25922), E. coli HB101, Pseudomonas aeruginosa (ATCC 27853), Staphylococcus aureus (ATCC 9144) and Corynebacterium glutamicum (ATCC 13032) were grown at 37°C in Mueller Hinton agar (MH; Difco Laboratories, Detroit, USA). The yeasts Candida albicans (ATCC 10231) and Saccharomyces cerevisiae spp and the mold Botrytis cinerea 101 [33] were cultivated on potato dextrose agar supplemented with 2% glucose at room temperature (RT).
(§2) Determination of the MIC against bacteria was performed by continuous monitoring of bacterial growth using a Bioscreen C microbiology reader (Labsystems Oy, Helsinki, Finland). The synthetic peptides were tested for antibacterial and antifungal activity at final concentrations (prepared from serial two-fold dilutions) ranging from 0.2 µM to 100 µM. The test was performed in 100-well flat-bottomed honeycomb plates, in which 50 µl peptide solution was incubated with 50 µl of a suspension of an actively growing culture of bacteria diluted to a starting concentration of 2.5×10^5 CFU/ml in Mueller Hinton Broth (MHB). The growth chamber was maintained at 37°C during the incubation period. The absorbance was measured by a turbidometric method with vertical light photometry and a wide band filter (420–580 nm). MIC was defined as the lowest concentration resulting in no visible bacterial growth after 24 h.

E. coli HB101 [1] = test: Antibacterial MIC assay (Bioscreen C growth monitoring); format: cell-based, Escherichia coli; details: 50% MH
Protocol: as §1, §2

P. aeruginosa ATCC 27853 = format: cell-based, Pseudomonas aeruginosa; details: ATCC 27853, 24 h
Protocol: as §1, §2

E. coli ATCC 25922 = format: cell-based, Escherichia coli; details: ATCC 25922, 24 h
Protocol: as §1, §2

E. coli HB101 [2] = test: Bactericidal assay (killing kinetics, colony counts); format: cell-based, Escherichia coli; details: 50% MHB, 1×10^6 CFU/ml, 37°C
Protocol: During incubation, aliquots were removed at different time intervals, washed in buffered high salt solution (10 mM Na-phosphate, 400 mM NaCl, 10 mM MgCl2), diluted and plated on MH plates. The number of bacterial CFU was determined after approximately 48 h of incubation at 37°C.

S. cerevisiae spp. = format: cell-based, Saccharomyces cerevisiae; details: 48 h
Protocol: as §1
(§3) Fungal spores were dissolved in potato dextrose broth (Difco, Lawrence, KS, USA) and the cell concentration was determined and adjusted after counting in a Bürker chamber. Botrytis cinerea was filtered through a piece of cotton before counting. An aliquot of 50 µl of fungal spores (final concentration 2×10^5 spores/ml) were inoculated in 96-well Nunclon™ microtitre plates (Nagle Nunc Int. Roskilde, Denmark) along with 50 µl of synthetic peptide dissolved in Milli-Q water. Cultures were grown in a dark moist chamber without shaking at 20°C for S. cerevisiae and B. cinerea, and at 37°C for C. albicans. Growth inhibition was determined microscopically after 48 h of incubation. Inhibitory concentrations (IC50) was defined as the lowest concentration tested which yielded less than 50% visible growth compared to the growth control (fungi). Each peptide was tested in parallels in three individual runs for the antimicrobial assays.

E. coli HB101 [3] = test: Membrane integrity assay II (propidium iodide, flow cytometry); format: cell-based, Escherichia coli; details: at MIC; PI flow cytometry
Protocol: The effect of arasin 1(1–23) and cecropin P1 on membrane permeabilization was also studied by measuring the percentage of propidium iodide (PI) positive cells by flow cytometry. Samples of 1×10^6 cells/ml of E. coli HB101 were incubated in 50% MH with peptides at 37°C for different time span. After incubation, PI (Sigma Aldrich, Saint Louis, MO, USA) was added to the peptide-treated bacteria at a final concentration of 10 µg/ml. The cells were analyzed after 4 min of incubation with PI at 37°C in the flow cytometer as described.

C. albicans ATCC 10231 = format: cell-based, Candida albicans; details: ATCC 10231, 48 h
Protocol: as §1, §3

C. glutamicum ATCC 13032 = format: cell-based, Corynebacterium glutamicum; details: ATCC 13032, 24 h
Protocol: as §1, §2

B. cinerea 101 = format: cell-based, Botrytis cinerea
Protocol: as §1, §3

Gram-negative bacteria = details: cited from earlier work
Protocol: The high standard deviation values only observed at 20 µM (5×MIC) for both the viability assay (Fig. 3) and the membrane integrity assay (Fig. 6) indicate that activity around this concentration was very sensitive to individual assay conditions.

[4] = test system: E. coli HB101 constitutively expressing the luxCDABE operon; test: Cell viability assay (luxCDABE luminescence); format: cell-based, Escherichia coli; details: at MIC, within the first 10 min after addition of peptide; 50% MH, OD600 0.2, 30°C
Protocol: E.coli HB101 was transformed with the plasmid pCGLS-11 to enable constitutive bacterial luciferase expression from the luxCDABE operon. The resulting strain was used for cell viability assays as follows. An overnight culture in MH medium with ampicillin (100 µg/ml) was pelleted at 3000×g for 10 min and washed in MH medium before re-suspending the cells in 50% MH medium with a final OD600 of approximately 0.2. After 30 min of incubation at 30°C the cells were again adjusted to an OD600 of 0.2. An aliquot of 95 µl of bacterial solution was dispensed into each well of a black 96 well microtiter plate with transparent bottom (Falcon, Bredford, MA, USA). To achieve the indicated concentrations, a multi-channel pipette was used to add 5 µl of a two-fold dilution series of peptide solution in water to 8 wells simultaneously. The plate was loaded into a Perkin-Elmer Envision microtiter plate reader immediately after addition of the peptide (arasin 1(1–23), PR-39(1–26) or cecropin P1) and the measurement started 30 sec later because of handling events and 2 seconds of shaking inside the plate reader. Light production and growth (OD595) of the sensor bacteria was followed for 3 h under repeated shaking cycles before each measurement at 30°C.

[5] = test system: human red blood cells (RBC); test: Hemolytic assay; details: read-out: EC50 (peptide concentration producing 50% hemolysis); 1% RBC suspension in PBS pH 7.4, 37°C, 1 h, absorbance at 550 nm; 100% hemolysis = 0.05% Triton X-100
Protocol: The erythrocytes were pelleted by centrifugation at 450×g for 10 min and washed three times with phosphate-buffered saline (PBS; 320 mOsm, pH 7.4). The cell pellet was resuspended in 4 ml PBS and adjusted to a suspension giving 10% RBC. The test was performed in a 96 well U-shaped microtiter plate (Nunclon™ Surface, No. 163320; Nagle Nunc Int., Roskilde, Denmark), in which 50 µl peptide were incubated with 40 µl PBS and 10 µl RBC suspension. The synthetic peptides were tested at final concentrations ranging from 0.2 to 100 µM. After incubation in a shaker at 37°C for 1 h, the plate was centrifuged at 200×g for 5 min. The supernatants (60 µl) were carefully transferred to a new flat-bottomed polycarbonate microtiter plate (Nunc™ No. 269620, Nagle Nunc Int., Roskilde, Denmark), and absorbance was measured at 550 nm. Baseline hemolysis and 100% hemolysis were defined as the amount of hemoglobin released in the presence of PBS and 0.05% Triton X-100 (Sigma-Aldrich, Saint Louis, MO, USA), respectively. The EC50 value was taken as the mean concentration of peptide producing 50% hemolysis.

E. coli = test: Antimicrobial activity at varied MH concentration; format: cell-based, Escherichia coli; details: results not shown
Description: In contrast to the results from E. coli and P. aeruginosa, the C-terminal part of arasin 1(1–23) alone arasin 1(7–23) and 1(9–23) inhibits C. glutamicum and all the fungi. At the same time this antibacterial and antifungal activity is strictly dependent on a fragment between aa 13–23. This indicates a somewhat different mode of action for Gram- negative and Gram-positive bacteria, respectively. Likewise the mode of action against fungi is likely different. It is tempting to speculate that the N-terminal 5–10 amino acids might be involved in arasin 1(1–23) transfer across the outer membrane while the C-terminal part might bind the molecular target which is responsible for growth inhibition at low concentrations. The antimicrobial assays were all performed in MH or potato dextrose medium at a final concentration of 50% strength for bacteria and fungi, respectively. […] This means that the peptides are very sensitive to medium composition, and perhaps also salinity and/or ionic strength. […] In some studies, the use of diluted or poor medium instead of rich medium in MIC and mode of action studies is claimed to increase the sensitivity of the assays, [47]. The reasons of the medium-dependence have not been further evaluated, and 50% MH was used as the standard medium for the mode of action studies.

Row | Compound | MIC S. aureus ATCC 9144 (S. aureus ATCC 9144) [µM] | MIC E. coli HB101 (E. coli HB101 [1]; lowest concentration with no visible bacterial growth after 24 h, 37°C, 2.5×10^5 cells/mL, representative of three individual experiments) [µM] | MIC against E. coli HB101 (figure legend) (E. coli HB101 [1]; value used for mode of action studies) [µM] | MIC P. aeruginosa ATCC 27853 (P. aeruginosa ATCC 27853) [µM] | MIC E. coli ATCC 25922 (E. coli ATCC 25922) [µM] | time to kill all the bacteria (E. coli HB101 [2]) | IC50 (S. cerevisiae spp.) [µM] | incubation time after which damage of the membrane was induced (E. coli HB101 [3]) [min] | IC50 (C. albicans ATCC 10231) [µM] | MIC C. glutamicum ATCC 13032 (C. glutamicum ATCC 13032) [µM] | IC50 B. cinerea 101 (B. cinerea 101; lowest concentration tested giving less than 50% visible growth vs growth control, potato dextrose medium, 20°C, 48 h, three individual experiments) [µM] | MBC against Gram-negative bacteria (Gram-negative bacteria) [µM] | reduction of light emitted [4] [%] | EC50 [5] [µM] | change of antimicrobial activity against E. coli by varying the MH concentration (E. coli) | IC50 (B. cinerea 101; 101, 48 h) [µM]
1 | CC[C@H](C)[C@H](NC(=O)CNC(=O)[C@H](CCC(=O)O)NC(=O)[C@H](CO)NC(=O)[C@@H](NC(=O)[C@H](CCCNC(=N)N)NC(=O)[C@H](CCCCN)NC(=O)[C@H](CCCCN)NC(=O)[C@H](C)NC(=O)[C@H](CO)NC(=O)[C@H](CC(N)=O)NC(=O)[C@H](CCC(=O)O)NC(=O)[C@H](CC(C)C)NC(=O)[C@H](CCCCN)NC(=O)[C@H](CCCCN)NC(=O)[C@H](C)NC(=O)[C@@H](NC(=O)[C@H](CCCCN)NC(=O)[C@H](CO)NC(=O)[C@H](CC(C)C)NC(=O)[C@H](Cc1c[nH]c2ccccc12)NC(=O)[C@@H](N)CO)[C@@H](C)O)[C@@H](C)CC)C(=O)N[C@@H](C)C(=O)N[C@H](C(=O)N[C@@H](C)C(=O)N[C@H](C(=O)N[C@@H](CCC(N)=O)C(=O)NCC(=O)NCC(=O)N1CCC[C@H]1C(=O)N[C@@H](CCCNC(=N)N)C(=O)O)[C@@H](C)CC)[C@@H](C)CC [Cecropin P1, reference compound] (H-SWLSKTAKKLENSAKKRISEGIAIAIQGGPR-OH; N-terminus and C-terminus assumed) | >100 | 0.8 to 1.6 | 1 (≈ 3.34 µg/mL) | 0.8 to 1.6 | 0.8 to 1.6 | approximately 15 min | 6.3 | 5 | 12.5 | 0.4 to 1.6 | 50 | 1 to 2 | 60 | – | – | –
2 | mellitin B: hemolytic control peptide purchased from Sigma-Aldrich | – | – | – | – | – | – | – | – | – | – | – | – | – | 2 | – | –
3 | CC[C@H](C)[C@H](NC(=O)[C@H](CCCNC(=N)N)NC(=O)[C@@H]1CCCN1C(=O)[C@@H]1CCCN1C(=O)[C@H](CC(C)C)NC(=O)[C@H](CCCNC(=N)N)NC(=O)[C@@H]1CCCN1C(=O)[C@@H]1CCCN1C(=O)[C@H](Cc1ccccc1)NC(=O)[C@H](Cc1ccccc1)NC(=O)[C@@H]1CCCN1C(=O)[C@@H]1CCCN1C(=O)[C@@H]1CCCN1C(=O)[C@H](CCCNC(=N)N)NC(=O)[C@@H]1CCCN1C(=O)[C@H](CCCNC(=N)N)NC(=O)[C@@H]1CCCN1C(=O)[C@H](CC(C)C)NC(=O)[C@H](Cc1ccc(O)cc1)NC(=O)[C@@H]1CCCN1C(=O)[C@@H]1CCCN1C(=O)[C@H](CCCNC(=N)N)NC(=O)[C@@H]1CCCN1C(=O)[C@H](CCCNC(=N)N)NC(=O)[C@H](CCCNC(=N)N)NC(=O)[C@@H](N)CCCNC(=N)N)C(=O)O [PR39(1–26), reference compound] (H-RRRPRPPYLPRPRPPPFFPPRLPPRI-OH; N-terminus and C-terminus assumed) | 50 (≈ 161 µg/mL) | – | – | 3.1 to 6.3 | 0.8 to 1.6 | – | 12.5 | – | 12.5 | 0.4 (≈ 1.29 µg/mL) | – | – | – | – | did not change the antimicrobial activity | 12.5
